Measured values taken from EP3436024B1, “3-BETA-METHOXY-PREG FOR USE IN THE TREATMENT OF TREATMENT RESISTANT DEPRESSION” (Mapreg, priority 2016, dated 2017).

Columns and labels:
Serotoninergic 5-HT1A = Serotoninergic 5-HT1A (Homo sapiens, UniProt P08908); assay: CNS receptor binding assay, 5-HT1A; conditions: MAP4343 10 µM; [^3H] 8-OH-DPAT; Human recombinant (HEK-293 cells); read-out: % Inhibition of control specific binding
Method: (§1) MAP4343 has been screened for in vitro affinity to 80 different CNS neurotransmitters receptors using various validated binding assays.
(§2) Table 4. In vitro affinity of MAP4343 (10 µM) for CNS neurotransmitter receptors associated with side effects and/or abuse liability. Data are the average of two individual assays for each receptor and are expressed as % inhibition of the control specific binding of the reference compound. Results showing an inhibition higher than 50% are considered to represent significant effects of the test compound.

[1] = target: T1, human progesterone receptor(PR) (Homo sapiens, UniProt P06401); assay: Test of progesterone receptor agonist activity (MMTV-luciferase transactivation in transfected HEK293T cells); assay type: cell-based; conditions: 24 hours, increasing amounts, Figure 1
T1 construct: expressed in transfected cells; host or cells: HEK293T
T1 sequence (P06401 1-933): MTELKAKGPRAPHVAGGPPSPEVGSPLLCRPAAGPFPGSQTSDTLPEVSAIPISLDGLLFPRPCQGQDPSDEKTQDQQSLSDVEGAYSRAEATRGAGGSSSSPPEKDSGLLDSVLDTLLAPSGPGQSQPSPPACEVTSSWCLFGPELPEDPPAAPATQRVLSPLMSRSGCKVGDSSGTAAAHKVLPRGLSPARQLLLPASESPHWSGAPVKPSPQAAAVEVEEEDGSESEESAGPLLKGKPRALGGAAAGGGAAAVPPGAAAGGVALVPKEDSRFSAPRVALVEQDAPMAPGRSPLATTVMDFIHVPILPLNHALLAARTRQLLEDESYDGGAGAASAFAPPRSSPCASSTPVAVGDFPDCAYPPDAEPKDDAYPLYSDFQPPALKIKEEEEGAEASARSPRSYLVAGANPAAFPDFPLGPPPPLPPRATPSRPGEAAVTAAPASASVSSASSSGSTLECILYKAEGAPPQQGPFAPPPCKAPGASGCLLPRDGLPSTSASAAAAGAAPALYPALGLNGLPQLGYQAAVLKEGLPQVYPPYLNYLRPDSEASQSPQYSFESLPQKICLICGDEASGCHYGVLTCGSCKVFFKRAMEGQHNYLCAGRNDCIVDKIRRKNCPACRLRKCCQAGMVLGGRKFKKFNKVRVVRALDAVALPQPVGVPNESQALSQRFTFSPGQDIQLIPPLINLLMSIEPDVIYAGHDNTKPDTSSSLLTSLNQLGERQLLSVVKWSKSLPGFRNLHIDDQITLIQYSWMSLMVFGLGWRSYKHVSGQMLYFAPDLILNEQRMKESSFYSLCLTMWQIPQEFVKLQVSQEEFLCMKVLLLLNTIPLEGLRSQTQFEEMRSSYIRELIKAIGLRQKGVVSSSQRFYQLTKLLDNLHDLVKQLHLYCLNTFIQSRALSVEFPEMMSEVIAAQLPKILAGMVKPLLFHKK
Method: The main experimental setting used is the following: HEK293T cells were transiently transfected, using calcium phosphate precipitation technology, with expression vectors pSG5hPR (which permits expression of human progesterone receptor(PR)), pFC31-luc (contains the luciferase gene under the control of the MMTV promoter, which is in turn activated by binding of a progestin to progesterone receptor) and pcbetagal (which permits expression of betagalactosidase), and cultured during 24 hours with increasing amounts of various compositions: • 1. […] Test of progesterone receptor […] activity: transfected cells were cultured with progesterone (1 nM) and increasing amounts of RU486 (a well-known progesterone receptor antagonist) or 3-methoxy-pregnenolone. With this setting, a compound with progesterone receptor antagonist activity competes with progesterone for the occupation of progesterone receptor and results in a progressive loss of transactivation activity when the amount of this compound is increased compared to progesterone.

[2] = target: T2, Muscarinic (Cholinergic) M3 (Homo sapiens, UniProt P20309); assay: CNS receptor binding assay, M3; conditions: MAP4343 10 µM; [^3H] 4-DAMP; Human recombinant (CHO cells); read-out: % Inhibition of control specific binding
T2 construct: expressed in transfected cells; host or cells: CHO cells
T2 sequence (P20309 whole entry): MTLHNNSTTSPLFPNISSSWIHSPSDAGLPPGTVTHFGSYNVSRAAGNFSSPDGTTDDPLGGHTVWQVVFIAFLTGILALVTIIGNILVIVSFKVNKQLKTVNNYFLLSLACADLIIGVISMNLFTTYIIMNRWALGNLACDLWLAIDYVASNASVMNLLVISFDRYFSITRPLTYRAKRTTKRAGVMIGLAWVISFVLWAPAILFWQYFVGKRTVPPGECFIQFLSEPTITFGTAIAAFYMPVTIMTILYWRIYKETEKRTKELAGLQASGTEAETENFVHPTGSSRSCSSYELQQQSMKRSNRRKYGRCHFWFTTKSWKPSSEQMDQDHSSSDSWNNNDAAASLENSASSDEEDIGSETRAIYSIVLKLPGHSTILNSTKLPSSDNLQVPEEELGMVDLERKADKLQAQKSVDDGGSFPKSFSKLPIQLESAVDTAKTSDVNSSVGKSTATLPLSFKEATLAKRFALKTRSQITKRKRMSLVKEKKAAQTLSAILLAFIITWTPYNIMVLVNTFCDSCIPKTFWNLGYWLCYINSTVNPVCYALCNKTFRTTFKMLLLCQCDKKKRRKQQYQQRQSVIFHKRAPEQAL
Method: as §1, §2

Dopaminergic D5 = Dopaminergic D5 (Homo sapiens, UniProt P21918); assay: CNS receptor binding assay, D5; conditions: MAP4343 10 µM; [^3H] SCH 23390; Human recombinant (GH4 cells); read-out: % Inhibition of control specific binding
Sequence of Dopaminergic D5 (P21918 whole entry): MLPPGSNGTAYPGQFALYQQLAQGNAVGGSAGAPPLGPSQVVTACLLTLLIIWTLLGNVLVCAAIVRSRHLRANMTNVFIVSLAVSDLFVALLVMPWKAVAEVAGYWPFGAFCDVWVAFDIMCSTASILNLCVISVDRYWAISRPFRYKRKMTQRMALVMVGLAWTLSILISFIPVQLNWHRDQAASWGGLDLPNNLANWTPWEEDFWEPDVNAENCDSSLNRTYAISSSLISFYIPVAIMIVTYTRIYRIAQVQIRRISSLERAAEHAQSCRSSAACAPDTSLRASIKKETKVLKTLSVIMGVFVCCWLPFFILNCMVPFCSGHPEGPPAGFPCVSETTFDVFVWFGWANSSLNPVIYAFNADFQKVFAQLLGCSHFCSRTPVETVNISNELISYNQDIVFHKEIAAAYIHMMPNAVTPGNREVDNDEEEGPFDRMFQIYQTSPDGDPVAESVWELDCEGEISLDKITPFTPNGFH
Method: as §1, §2

Serotoninergic 5-HT7 = Serotoninergic 5-HT7 (Homo sapiens, UniProt P34969); assay: CNS receptor binding assay, 5-HT7; conditions: MAP4343 10 µM; [^3H] LSD; Human recombinant (CHO cells); read-out: % Inhibition of control specific binding
Sequence of Serotoninergic 5-HT7 (P34969 whole entry): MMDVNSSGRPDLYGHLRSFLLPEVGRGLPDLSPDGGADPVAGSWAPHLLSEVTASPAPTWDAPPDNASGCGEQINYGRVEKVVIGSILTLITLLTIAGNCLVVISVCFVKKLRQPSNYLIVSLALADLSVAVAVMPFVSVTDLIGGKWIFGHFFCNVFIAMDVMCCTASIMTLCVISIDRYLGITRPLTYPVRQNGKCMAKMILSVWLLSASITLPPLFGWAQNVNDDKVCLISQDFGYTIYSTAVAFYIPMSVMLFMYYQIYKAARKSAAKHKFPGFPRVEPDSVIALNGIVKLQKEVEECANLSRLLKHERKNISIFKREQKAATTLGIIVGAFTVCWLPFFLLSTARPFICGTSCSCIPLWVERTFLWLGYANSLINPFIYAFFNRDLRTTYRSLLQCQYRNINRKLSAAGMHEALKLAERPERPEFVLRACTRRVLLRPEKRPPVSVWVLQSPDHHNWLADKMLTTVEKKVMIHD
Method: as §1, §2

Wistar (WI) rats = assay: Forced swimming test (FST), WI rats; assay type: in vivo, rat; conditions: dose-ranging, Fig. 6A
Method: 3B-methoxy-PREG (also referred to as "MAP4343" in Example 4) was dissolved in sesame oil by sonication using a Sonifer-450 (Branson Ultrasonics Corporation, Danbury, USA) during 1 cycle of 5 pulses in sesame oil. Fluoxetine (Biotrend, Köln, Germany) and Ketamine (Sigma-Aldrich, St-Quentin Fallvier, France) were dissolved in sterile saline solution (NaCl 0.9%). The drug formulations were prepared freshly each day of treatment. MAP4343 was administered subcutaneously (ranging of 1-15 mg/Kg/day) while fluoxetine and ketamine were injected intraperitonealy (10 mg/Kg/day and 30 mg/Kg/day, respectively).
Rats were submitted to the forced swimming test (FST), according the procedure initially described by (Detke et al., 1995) and slightly modified by (Bianchi et al., 2002). Briefly, rats were individually placed into a Plexiglas cylinder (40 cm height, 20 cm diameter) containing 25 cm of water at 25 ± 1°C, under 50 lux illumination. After a pre-test session of 15 min, rats were removed, dried and returned to its housed cage. […] The pre-test and test sessions were recorded using a video camera placed above the cylinder for subsequent behavioral analysis. The immobility time (in sec) was blindly measured by two independent experimenters from recorded videos. […]
The effects of a dose-ranging administration of MAP4343 were tested in WI and WKY rats on their immobility time measured in FST.

[3] = system: microtubule-associated protein2 (MAP2); assay: Binding (affinity) by displacement of PREG-3H; conditions: index of binding
Histaminergic H1 = Histaminergic H1 (Homo sapiens, UniProt P35367); assay: CNS receptor binding assay, H1; conditions: MAP4343 10 µM; [^3H] pyrilamine; Human recombinant (HEK-293 cells); read-out: % Inhibition of control specific binding
Sequence of Histaminergic H1 (P35367 whole entry): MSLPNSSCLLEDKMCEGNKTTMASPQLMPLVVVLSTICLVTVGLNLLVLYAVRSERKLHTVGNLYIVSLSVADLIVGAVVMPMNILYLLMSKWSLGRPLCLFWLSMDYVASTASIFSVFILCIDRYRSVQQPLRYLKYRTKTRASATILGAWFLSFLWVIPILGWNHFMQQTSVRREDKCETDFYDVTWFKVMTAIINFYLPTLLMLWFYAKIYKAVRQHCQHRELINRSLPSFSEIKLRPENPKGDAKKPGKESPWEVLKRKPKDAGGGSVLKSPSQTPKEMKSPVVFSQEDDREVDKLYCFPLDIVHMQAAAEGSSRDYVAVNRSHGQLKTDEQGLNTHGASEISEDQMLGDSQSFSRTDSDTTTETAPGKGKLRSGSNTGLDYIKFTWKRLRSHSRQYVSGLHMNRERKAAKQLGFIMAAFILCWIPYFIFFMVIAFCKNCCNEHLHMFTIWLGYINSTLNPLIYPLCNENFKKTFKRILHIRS
Method: as §1, §2

Noradrenergic α1 = assay: CNS receptor binding assay, α1; conditions: MAP4343 10 µM; [^3H] prazosin; rat cerebral cortex
Method: as §1, §2

Sequence of Serotoninergic 5-HT1A (P08908 whole entry): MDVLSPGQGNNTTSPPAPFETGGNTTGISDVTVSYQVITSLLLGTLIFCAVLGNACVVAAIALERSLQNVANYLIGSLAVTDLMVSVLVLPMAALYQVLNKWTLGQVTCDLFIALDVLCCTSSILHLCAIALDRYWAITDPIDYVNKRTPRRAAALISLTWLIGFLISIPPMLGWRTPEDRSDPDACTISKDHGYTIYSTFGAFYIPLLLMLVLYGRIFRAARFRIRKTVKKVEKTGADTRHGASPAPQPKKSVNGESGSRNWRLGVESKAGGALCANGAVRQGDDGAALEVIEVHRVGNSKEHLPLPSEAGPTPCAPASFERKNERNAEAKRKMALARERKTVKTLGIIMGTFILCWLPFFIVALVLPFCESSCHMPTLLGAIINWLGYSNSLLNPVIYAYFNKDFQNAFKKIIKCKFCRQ

SMILES: CO[C@H]1CC[C@@]2(C)C(=CC[C@H]3[C@@H]4CC[C@H](C(C)=O)[C@@]4(C)CC[C@@H]32)C1 (stereo in doubt) [MAP4343, 3β-methoxy-pregna-5-ene-20-one]
- inhibition at 10 µM (Serotoninergic 5-HT1A): 2%
- progesterone receptor agonist activity (transactivation activity leading to the expression of luciferase) [1]: does not permit such a transactivation activity
- inhibition at 10 µM [2]: 3%
- inhibition at 10 µM (Dopaminergic D5): -7%
- inhibition at 10 µM (Serotoninergic 5-HT7): -11%
- immobility time measured in FST, change as compared to WI receiving vehicle alone (Wistar (WI) rats; MAP4343 10 mg/kg): -27%
- immobility time measured in FST, change as compared to WI receiving vehicle alone (Wistar (WI) rats; MAP4343 15 mg/kg): -31%
- Affinity [3]: 100% of PREG
- inhibition at 10 µM (Histaminergic H1): 9%
- % Inhibition of control specific binding (Noradrenergic α1): 4%
